Data from patent US20200306283A1, “CANCER TREATMENT AND METASTASIS INHIBITION USING AN ANTI-CANCER STEM CELL AGENT IN COMBINATION WITH A NEU1 SIALIDASE INHIBITOR OR A CYTOKINE INHIBITOR AFTER PRIMARY CANCER TREATMENT” (priority 2016, published 2020).

Assays:
[1] = system: xenograft tumors of PANC-1 cells; assay: Fluorescence immunohistochemistry of E-cadherin and N-cadherin in PANC-1 xenograft tumors (FIG. 24); assay type: in vivo; settings: immunocompromised mice
Experimental: Paraffin-embedded tumor sections (5 μm) on glass slides were processed from immunohistochemistry using conjugated E-cadherin and N-cadherin antibodies (see A of FIG. 24). Background control (CTL) sections were prepared without the antibodies. Images are representative of at least five fields of view from two tumor sections. (B). Each bar represents the mean (±standard error of the mean) corrected density of tumor staining. Abbrev.: C=cohort; M=mouse number. E- and N-cadherin expression in paraffin-embedded xenograft tumors of PANC-1 cells in immunocompromised mice using conjugated E- and N-cadherin antibodies was detected by fluorescence immunohistochemistry. […] Images are representative of at least five fields of view from two tumor sections, and each bar represents the mean±standard error of the mean corrected density of tumor staining.

[2] = system: enriched circulating tumour cells from a patient with colorectal cancer; assay: Cultured enriched CTCs from a colorectal cancer patient treated with IL-6, IL-8 or PDGFBB (EpCAM, CD133, Lgr5 flow cytometry); assay type: cell-based, human
Excerpt: A blood sample was collected from a patient with colorectal cancer six days after surgery. Blood samples were enriched for CTCs using RosetteSep CD 56 kit according to standard protocol. Prior to cell culture, cells were stained with the following antibody cocktail: EpCAM A488, CD133PE, CD 45 PerCP Cy5.5, and Lgr5-PE-Vio770. Cells were either cultured in low attachment well plates without cytokines (control cells) or with three different cytokines (IL-6, IL-8 or PDGFBB).
Flow cytometry data was analysed using IDEAS software. Double events, out of focus events, CD45PercPCy5.5 positive cells, dead cells and non-nucleated events were eliminated from the fluorescence analysis of the cell population. Hoescht 33258 dye was used to stain nuclei of enriched CTCs. All experiments were stained with a fixable live/dead dye eFluor 506 to exclude dead cells.

SW-620 cells = SW-620 cells treated with cytokines with or without Irinotecan, flow cytometry for stem cell markers and apoptosis; assay type: cell-based, human; settings: SW-620, cytokines 24 hours then 2 μM Irinotecan 36 hours; zero in non-treated control cells
Experimental: SW-620 cells, a human colorectal adenocarcinoma cell line, were treated with cytokines alone or in combination including IL-6, TGF-beta, HGF, PGE-2, IL-6+PGE-2 and TGF-beta+HGF for 24 hours and compared to untreated SW-620 cells as control. Some treated and untreated SW-620 cells were then exposed to 2 μM Irinotecan for 36 hours at which point cells were harvested for flow cytometry to assess for stem cell markers and markers of apoptosis. The percentage of CD44+CD133− cells following treatment with various cytokine and cytokine cocktails is depicted in FIG. 10. Compared to non-cytokine treated cells, combinations with IL-6+PGE-2, and TGF-beta+HGF increased the number and percentage of cells that were CD44+CD133− as shown in FIG. 10 (stem cells). FIG. 11 depicts the percentage of CD44+CD133− cells following treatment with various cytokines and Irinotecan. […]
Additionally, the percentage of CD44-CD133+ cells following treatment with various cytokines and cytokines cocktails was determined as depicted in FIG. 16. The percentage of CD44-CD133+ cells following treatment with various cytokines and Irinotecan was measured as depicted in FIG. 17. The percentage of CD44-CD133+ cells following treatment with various cytokine cocktails and Irinotecan was measured as depicted in FIG. 18. […]

[3] = system: enriched circulating tumour cells from a patient with metastatic prostate cancer; assay: Cell proliferation / cancer stem cell markers (EpCAM, CD44, CD133) in enriched CTCs cultured with cytokine cocktails; assay type: cell-based, human
Experimental: (§1) Cells were fixed in 1% Paraformaldehyde for 15 minutes at room temperature and run on Flowsight using 2 lasers (488 nm at 60 mW and 405 nm at 30 mW). For cell lines, 100,000 events were collected whilst for enriched CTCs all events were collected until the sample finished.
(§2) Flow cytometry data was analysed using IDEAS software. Double events, out of focus events, CD45PercPCy5.5 positive cells (in case of enriched CTCs), dead cells and non-nucleated events were eliminated from the fluorescence analysis of the cell population. FIG. 2 depicts scatterplots of flow cytometry experiments showing the enriched CTCs stained with an antibody containing CD44 after treatment with various cytokines and cytokine cocktails.
In order to determine if selected cytokines influence cell proliferation of circulating tumour cells (CTCs), whole blood was collected from a patient with metastatic prostate cancer. Circulating tumour cells were enriched from whole blood using RosetteSep CTC Enrichment cocktail. Briefly, samples of whole blood were incubated with RosetteSep (anti CD 56 for 20 minutes at room temperature). Phosphate buffered saline containing 2% Fetal Bovine Serum was added to the samples and layered on a Ficoll Paque gradient. After centrifugation, the supernatant which contained CTCs was washed twice with PBS containing 2% FBS. Equal volumes of the cell suspension were seeded into a 24-well ultra-low attachment polystyrene plate. […] FIG. 3 depicts scatterplots of flow cytometry experiments enriched CTCs stained with an antibody containing CD133 after treatment with various cytokines and cytokine cocktails.
FIG. 6 depicts cell proliferation of subpopulations in cultured CTCs after exposure to various cytokines and cytokine cocktails. Cells were stained using an antibody containing CD44 PE.
Cells were stained using an antibody containing CD133 PE.

HCT-15 cells = assay: Cell subpopulations (CD44/CD24) in HCT-15 cell line after cytokine exposure, imaging flow cytometry; assay type: cell-based; design: unit not given here; settings: HCT-15 cells after exposure to cytokines singly or in pairs
Experimental: Two authenticated colorectal carcinoma cell lines, HCT-15 and SW-620, were used to test the effect of different cytokine and cytokine cocktails, including IL-6, HGF, PGE-2, TGF-beta and MMP-9 alone or in a cocktail, on cell proliferation, EMT and cancer stem cell populations.
In order to evaluate stem cell populations, cells were synchronized by serum starvation for 72 hours before seeding in 24-well ultra low attachment plates at a density of 200,000 cells/well. Cells were then detached using trypsin EDTA and washed twice with PBS (without Calcium or Magnesium). A cell proliferation dye, eFluor 450 was used to label cells. Cells were grown with DMEM with high glucose and 2 mM Gluatmine without FBS in the presence of selected cytokines and or cytokine cocktails over a period of 72 hrs.
Cells that were grown in 5% serum were stained with the following antibody cocktails: CD24FITC, CD44PE and CD24FITC, CD133PE. Cells were also stained with a fixable live/dead efluor dye 506 to exclude dead cells. In parallel, cells were grown in the presence of 5% serum to evaluate CSC markers.
as §1
as §2, with “cocktails. Hoescht 33258 dye was used to stain nuclei in the case of the HCT-15 cell line and enriched CTCs. All experiments were stained with a fixable live/dead dye eFluor 506 to exclude dead cells.” for “cocktails.”
To evaluate which cocktail combinations were most likely involved in cell proliferation of presumed quiescent stem cells or de-differentiated stem cell-like cells, four cytokines, IL-6, HGF, PGE-2 and TGF-beta were added singly or in pairs to HCT-15 cells. Results of combinations that influenced cell proliferation of HCT-15 cells in culture are presented. […] FIG. 4 depicts cell proliferation of subpopulations in the HCT-15 cell line after exposure to various cytokines and cytokine cocktails.

[4] = cultured CTCs from colorectal cancer patient
[5] = cell culture period 8 days, CD44PE antibody cocktail

Question: Which “N-cadherin expression in tumor tissue” value [1] does the source give for `Nc1ccn([C@@H]2O[C@H](CO)[C@@H](O)C2(F)F)c(=O)n1` [Gem, gemcitabine] here?
Answer: The value was “remained consistent”.

Question: “IL6: cytokine Interleukin 6 added to cancer cells in culture” was tested. Which “EpCAM + CD133+ cell subpopulation” value [2, 4] did it give?
Answer: The value was 0.1 percentages of gated subpopulations.

Question: What about the “EpCAM + CD133− cell subpopulation” value [2, 4] of the same molecule?
Answer: Its value is 2.98 percentages of gated subpopulations.

Question: And the “EpCAM − CD133+ cell subpopulation” value [2, 4]?
Answer: The value was 0.12 percentages of gated subpopulations.

Question: And the “EpCAM − CD133− cell subpopulation” value [2, 4]?
Answer: Its value is 90.5 percentages of gated subpopulations.

Question: And the “EpCAM+CD133− subpopulation (cancer stem cell fraction)” value ([2]; cultured CTCs, colorectal cancer patient, 0.05% before culture, 2% control, listed as IL-6)?
Answer: The value was “significantly increased”.

Question: And the “percentage of CD44+CD133− stem cells” value (SW-620 cells)?
Answer: The value was “enriched”.

Question: What about the “percentage of cells positive for both EpCAM and CD44” value ([3]; 8 days culture, CD44PE antibody cocktail) of the same molecule?
Answer: Its value is “highest”.

Question: What about the “EpCAM-CD44+ cell sub-population” value ([3]; 8 days culture, no serum, CD44PE antibody cocktail) of the same molecule?
Answer: Its value is 6.14 % gated.

Question: What about the “EpCAM + CD133+ cell subpopulation” value ([3]; CD133 PE antibody cocktail) of the same molecule?
Answer: Its value is 23.5 percentages of gated subpopulations.

Question: What about the “EpCAM + CD133− cell subpopulation” value ([3]; CD133 PE antibody cocktail) of the same molecule?
Answer: The value was 0 percentages of gated subpopulations.

Question: And the “EpCAM − CD133+ cell subpopulation” value ([3]; CD133 PE antibody cocktail)?
Answer: The value was 74.7 percentages of gated subpopulations.

Question: What about the “EpCAM − CD133− cell subpopulation” value ([3]; CD133 PE antibody cocktail) of the same molecule?
Answer: The value was 1.46 percentages of gated subpopulations.

Question: And the “EpCAM + CD44+ cell subpopulation” value [3, 5]?
Answer: The value was 35.6 percentage of gated cells.

Question: And the “EpCAM + CD44− cell subpopulation” value [3, 5]?
Answer: Its value is 2.66 percentage of gated cells.

Question: And the “EpCAM − CD44+ cell subpopulation” value [3, 5]?
Answer: The value was 6.14 percentage of gated cells.

Question: And the “EpCAM − CD44− cell subpopulation” value [3, 5]?
Answer: Its value is 55 percentage of gated cells.

Question: And the “CD24 + CD44− cell subpopulation” value (HCT-15 cells)?
Answer: The value was 49.1.

Question: And the “CD44 + CD24+ cell subpopulation” value (HCT-15 cells)?
Answer: Its value is 5.63.

Question: And the “CD44 + CD24− cell subpopulation” value (HCT-15 cells)?
Answer: The value was 1.35.

Question: And the “CD44 − CD24− cell subpopulation” value (HCT-15 cells)?
Answer: Its value is 43.2.
